{"source": "patent US20210087156A1", "about": "“PHARMACEUTICALLY ACCEPTABLE SALTS OF BENZODICYCLOALKANE DERIVATIVE, P[…] THEREOF, AND APPLICATION THEREOF” (priority 2018, published 2021)", "type_in_all_cases": "physicochemical", "key": {"[1]": {"test": "Stability test of free base, crystal form A and crystal form C (content and related substance)", "procedure": "The crystal form and purity change were measured respectively on 3rd and 7th day. The results are shown in Table 6, FIGS. 22, 23, 24 and 25. […]"}, "[2]": {"test": "Solubility test at room temperature", "procedure": "The solubility of the crystal form A, the crystal form C and the free base in 0.1 M HCL, pH 4.5, or pH 6.8 buffer or water was tested at room temperature. In the test, the standard curves of the crystal form A, the crystal form C and the free base were plotted respectively. Subsequently, a appropriate amount of the crystal form A, the crystal form C and the free base was weighed respectively, to which was added a appropriate amount of solvent. The mixture was shaken at room temperature for 24 h, centrifuged. The supernatant was taken and the solubility was determined. The results are shown in Table 7, (the concentration unit is mg/mi)."}, "[3]": {"test": "Properties of crystal form I (DVS hygroscopicity, stability)", "procedure": "The Dynamic Vapor Sorption (DVS) curve was acquired on the DVS Intrinsic of Surface Measurement Systems.\nAbout 10 mg of the free base of the compound of formula X prepared according to the method of Example 1 was weighed into a glass vial, and an appropriate amount of ethyl acetate was added to obtain a nearly saturated solution, which was fully dissolved by ultrasonication and filtered. 20-200 uL of corresponding solvent was added to the clear filtrate, which was stood and the solvent was slowly evaporated at room temperature. After the solvent was completely evaporated, the resulting solid was collected and subjected to an XRPD test."}, "[4]": {"conditions": "5° C., 0 d (control), listed as From A"}, "[5]": {"conditions": "40° C./75% RH, 3 d, listed as From A"}, "[6]": {"conditions": "40° C./75% RH, 7 d, listed as From A"}, "[7]": {"conditions": "0.1M HCL, room temperature, shaken 24 h"}, "[8]": {"conditions": "H2O, room temperature, shaken 24 h"}, "[9]": {"conditions": "pH 4.5 buffer, room temperature, shaken 24 h"}, "[10]": {"conditions": "pH 6.8 buffer, room temperature, shaken 24 h"}, "[11]": {"conditions": "40° C./75% RH, 3 d, listed as From C"}, "[12]": {"conditions": "40° C./75% RH, 7 d, listed as From C"}}, "data": [{"compound": "C[C@@]12CCCCC[C@@H](Cc3ccc(OC(=O)NC4COC4)cc31)[C@@H]2N", "note": "[Form A]", "values": [{"measurement": "character", "setting": "[1]; 5° C., 0 d (control)", "result": "off-white solid"}, {"measurement": "Area (%)", "setting": "[1]; [4]", "result": 99.82, "unit": "%"}, {"measurement": "Total impurity (%)", "setting": "[1]; [4]", "result": 0.18, "unit": "%"}, {"measurement": "RRT(%) 1.25 (related substance)", "setting": "[1]; 5° C., 0 d, — = below detection limit", "result": 0.18, "unit": "%"}, {"measurement": "RRT(%) 1.25 (related substance)", "setting": "[1]; 40° C./75% RH, 3 d", "result": 0.14, "unit": "%"}, {"measurement": "character", "setting": "[1]; 40° C./75% RH, 3 d", "result": "off-white solid"}, {"measurement": "Area (%)", "setting": "[1]; [5]", "result": 99.47, "unit": "%"}, {"measurement": "RRT(%) 0.81 (related substance)", "setting": "[1]; [5]", "result": 0.39, "unit": "%"}, {"measurement": "Total impurity (%)", "setting": "[1]; [5]", "result": 0.53, "unit": "%"}, {"measurement": "RRT(%) 1.25 (related substance)", "setting": "[1]; 40° C./75% RH, 7 d", "result": 0.17, "unit": "%"}, {"measurement": "character", "setting": "[1]; 40° C./75% RH, 7 d", "result": "off-white solid"}, {"measurement": "Area (%)", "setting": "[1]; [6]", "result": 99.28, "unit": "%"}, {"measurement": "RRT(%) 0.81 (related substance)", "setting": "[1]; [6]", "result": 0.54, "unit": "%"}, {"measurement": "Total impurity (%)", "setting": "[1]; [6]", "result": 0.72, "unit": "%"}, {"measurement": "RRT(%) 1.25 (related substance)", "setting": "[1]; 60° C., 3 d", "result": 0.20, "unit": "%"}, {"measurement": "character", "setting": "[1]; 60° C., 3 d", "result": "off-white solid"}, {"measurement": "Area (%)", "setting": "[1]; 60° C., 3 d, listed as From A", "result": 99.68, "unit": "%"}, {"measurement": "RRT(%) 0.81 (related substance)", "setting": "[1]; 60° C., 3 d, listed as From A", "result": 0.12, "unit": "%"}, {"measurement": "Total impurity (%)", "setting": "[1]; 60° C., 3 d, listed as From A", "result": 0.32, "unit": "%"}, {"measurement": "RRT(%) 1.25 (related substance)", "setting": "[1]; 60° C., 7 d", "result": 0.30, "unit": "%"}, {"measurement": "character", "setting": "[1]; 60° C., 7 d", "result": "off-white solid"}, {"measurement": "Area (%)", "setting": "[1]; 60° C., 7 d, listed as From A", "result": 99.58, "unit": "%"}, {"measurement": "RRT(%) 0.81 (related substance)", "setting": "[1]; 60° C., 7 d, listed as From A", "result": 0.11, "unit": "%"}, {"measurement": "Total impurity (%)", "setting": "[1]; 60° C., 7 d, listed as From A", "result": 0.42, "unit": "%"}, {"measurement": "Final pH", "setting": "[2]; [7]", "result": 0.91}, {"measurement": "phenomenon", "setting": "[2]; [7]", "result": "Flocculent"}, {"measurement": "solubility at 24 h", "setting": "[2]; 0.1 M HCl, simulated gastric fluid, thermodynamic from solid, room temperature, shaken 24 h", "result": 17.8, "unit": "mg/mL"}, {"measurement": "Final pH", "setting": "[2]; [8]", "result": 3.86}, {"measurement": "phenomenon", "setting": "[2]; [8]", "result": "Flocculent"}, {"measurement": "solubility", "setting": "[2]; [8]", "result": 8.25, "unit": "mg/mL"}, {"measurement": "Final pH", "setting": "[2]; [9]", "result": 3.92}, {"measurement": "phenomenon", "setting": "[2]; [9]", "result": "clarified"}, {"measurement": "solubility", "setting": "[2]; [9]", "result": "≥8.36", "unit": "mg/mL"}, {"measurement": "Final pH", "setting": "[2]; [10]", "result": 5.86}, {"measurement": "phenomenon", "setting": "[2]; [10]", "result": "clarified"}, {"measurement": "solubility", "setting": "[2]; [10]", "result": "≥11.03", "unit": "mg/mL"}]}, {"compound": "C[C@@]12CCCCC[C@@H](Cc3ccc(OC(=O)NC4COC4)cc31)[C@@H]2N", "note": "[Form C]", "values": [{"measurement": "character", "setting": "[1]; 5° C., 0 d (control)", "result": "off-white solid"}, {"measurement": "Area (%)", "setting": "[1]; 5° C., 0 d (control), listed as From C", "result": 100.00, "unit": "%"}, {"measurement": "RRT(%) 0.70 (related substance)", "setting": "[1]; 40° C./75% RH, 3 d", "result": 3.60, "unit": "%"}, {"measurement": "RRT(%) 1.14 (related substance)", "setting": "[1]; 40° C./75% RH, 3 d", "result": 0.93, "unit": "%"}, {"measurement": "character", "setting": "[1]; 40° C./75% RH, 3 d", "result": "off-white solid"}, {"measurement": "Area (%)", "setting": "[1]; [11]", "result": 94.92, "unit": "%"}, {"measurement": "RRT(%) 0.81 (related substance)", "setting": "[1]; [11]", "result": 0.54, "unit": "%"}, {"measurement": "Total impurity (%)", "setting": "[1]; [11]", "result": 5.08, "unit": "%"}, {"measurement": "RRT(%) 0.70 (related substance)", "setting": "[1]; 40° C./75% RH, 7 d", "result": 3.04, "unit": "%"}, {"measurement": "RRT(%) 1.14 (related substance)", "setting": "[1]; 40° C./75% RH, 7 d", "result": 0.92, "unit": "%"}, {"measurement": "character", "setting": "[1]; 40° C./75% RH, 7 d", "result": "off-white solid"}, {"measurement": "Area (%)", "setting": "[1]; [12]", "result": 95.19, "unit": "%"}, {"measurement": "RRT(%) 0.81 (related substance)", "setting": "[1]; [12]", "result": 0.85, "unit": "%"}, {"measurement": "Total impurity (%)", "setting": "[1]; [12]", "result": 4.81, "unit": "%"}, {"measurement": "RRT(%) 0.70 (related substance)", "setting": "[1]; 60° C., 3 d", "result": 3.68, "unit": "%"}, {"measurement": "RRT(%) 1.14 (related substance)", "setting": "[1]; 60° C., 3 d", "result": 1.44, "unit": "%"}, {"measurement": "character", "setting": "[1]; 60° C., 3 d", "result": "off-white solid"}, {"measurement": "Area (%)", "setting": "[1]; 60° C., 3 d, listed as From C", "result": 94.64, "unit": "%"}, {"measurement": "RRT(%) 0.81 (related substance)", "setting": "[1]; 60° C., 3 d, listed as From C", "result": 0.24, "unit": "%"}, {"measurement": "Total impurity (%)", "setting": "[1]; 60° C., 3 d, listed as From C", "result": 5.36, "unit": "%"}, {"measurement": "RRT(%) 0.70 (related substance)", "setting": "[1]; 60° C., 7 d", "result": 3.60, "unit": "%"}, {"measurement": "RRT(%) 1.14 (related substance)", "setting": "[1]; 60° C., 7 d", "result": 1.52, "unit": "%"}, {"measurement": "character", "setting": "[1]; 60° C., 7 d", "result": "off-white solid"}, {"measurement": "Area (%)", "setting": "[1]; 60° C., 7 d, listed as From C", "result": 94.62, "unit": "%"}, {"measurement": "RRT(%) 0.81 (related substance)", "setting": "[1]; 60° C., 7 d, listed as From C", "result": 0.26, "unit": "%"}, {"measurement": "Total impurity (%)", "setting": "[1]; 60° C., 7 d, listed as From C", "result": 5.38, "unit": "%"}, {"measurement": "Final pH", "setting": "[2]; [7]", "result": 1.53}, {"measurement": "phenomenon", "setting": "[2]; [7]", "result": "clarified"}, {"measurement": "solubility", "setting": "[2]; [7]", "result": "≥33.87", "unit": "mg/mL"}, {"measurement": "Final pH", "setting": "[2]; [8]", "result": 3.45}, {"measurement": "phenomenon", "setting": "[2]; [8]", "result": "clarified"}, {"measurement": "solubility", "setting": "[2]; [8]", "result": "≥26.05", "unit": "mg/mL"}, {"measurement": "solubility compared to the free base (in words)", "setting": "[2]; pH 4.5, pH 6.8, or 0.1 M HCL", "result": "increased significantly"}, {"measurement": "Final pH", "setting": "[2]; [9]", "result": 3.47}, {"measurement": "phenomenon", "setting": "[2]; [9]", "result": "clarified"}, {"measurement": "solubility", "setting": "[2]; [9]", "result": "≥25.50", "unit": "mg/mL"}, {"measurement": "Final pH", "setting": "[2]; [10]", "result": 3.84}, {"measurement": "phenomenon", "setting": "[2]; [10]", "result": "clarified"}, {"measurement": "solubility", "setting": "[2]; [10]", "result": "≥26.11", "unit": "mg/mL"}]}, {"compound": "C[C@@]12CCCCC[C@@H](Cc3ccc(OC(=O)NC4COC4)cc31)[C@@H]2N", "note": "[Form I]", "values": [{"measurement": "stability (in words)", "setting": "[3]", "result": "good stability"}, {"measurement": "hygroscopicity (DVS curve)", "setting": "[3]; DVS, 25° C., 0% RH~95% RH", "result": "almost has no hygroscopicity"}]}]}
